Laboratory results: patent publication US11254654B2, “Heterochromatin gene repression inhibitors” (The University of North Carolina at Chapel Hill, priority 2017, dated 2022)
Counter-ions that a name gives are not always drawn.

Tests used:
[1] = target: T1, GLP (Homo sapiens, UniProt Q9H9B1); experiment: In vitro activity against GLP; assay type: biochemical; settings: data not shown
T1 sequence (Q9H9B1 1-1298): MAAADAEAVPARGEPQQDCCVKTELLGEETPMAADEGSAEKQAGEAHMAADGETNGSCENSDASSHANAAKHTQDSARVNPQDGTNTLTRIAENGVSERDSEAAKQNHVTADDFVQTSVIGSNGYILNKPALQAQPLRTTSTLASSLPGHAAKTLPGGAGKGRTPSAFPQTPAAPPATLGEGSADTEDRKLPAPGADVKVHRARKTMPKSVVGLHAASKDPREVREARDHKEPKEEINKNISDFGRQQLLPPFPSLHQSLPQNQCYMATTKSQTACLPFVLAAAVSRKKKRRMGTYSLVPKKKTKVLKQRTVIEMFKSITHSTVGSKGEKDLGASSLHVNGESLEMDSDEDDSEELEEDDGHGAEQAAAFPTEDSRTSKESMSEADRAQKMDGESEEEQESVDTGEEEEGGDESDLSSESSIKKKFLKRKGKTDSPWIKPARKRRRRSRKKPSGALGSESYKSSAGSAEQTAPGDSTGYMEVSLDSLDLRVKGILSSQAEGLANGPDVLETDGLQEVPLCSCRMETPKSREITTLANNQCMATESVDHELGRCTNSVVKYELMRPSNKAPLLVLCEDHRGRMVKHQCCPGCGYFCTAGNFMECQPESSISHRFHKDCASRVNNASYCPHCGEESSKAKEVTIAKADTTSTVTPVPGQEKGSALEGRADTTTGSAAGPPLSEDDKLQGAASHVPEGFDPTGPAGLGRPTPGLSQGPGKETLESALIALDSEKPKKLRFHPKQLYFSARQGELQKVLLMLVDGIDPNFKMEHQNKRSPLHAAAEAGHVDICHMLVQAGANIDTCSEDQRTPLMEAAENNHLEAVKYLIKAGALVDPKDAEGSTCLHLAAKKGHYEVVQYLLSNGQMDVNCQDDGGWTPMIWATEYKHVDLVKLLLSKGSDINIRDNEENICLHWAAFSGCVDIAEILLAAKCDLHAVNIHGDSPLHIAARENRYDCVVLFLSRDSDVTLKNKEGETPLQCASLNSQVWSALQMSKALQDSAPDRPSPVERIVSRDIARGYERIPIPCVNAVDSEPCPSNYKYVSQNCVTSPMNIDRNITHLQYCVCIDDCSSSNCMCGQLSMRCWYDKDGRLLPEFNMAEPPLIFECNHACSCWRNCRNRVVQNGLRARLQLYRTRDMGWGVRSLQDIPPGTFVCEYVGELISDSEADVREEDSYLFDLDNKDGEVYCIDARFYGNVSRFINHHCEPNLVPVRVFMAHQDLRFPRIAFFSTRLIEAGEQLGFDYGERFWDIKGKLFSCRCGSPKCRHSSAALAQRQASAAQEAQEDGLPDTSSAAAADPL

[2] = test system: HP1 heterochromatin pathway; experiment: Small molecule high-throughput flow cytometry screen, CiA:Oct4 N118/N163 cells with rapamycin (csHP1α recruitment); assay type: cell-based, mouse; settings: 10 μM compound, + 6 nM rapamycin, 48 hrs
Text: The CiA:Oct4 recruitment system in mouse embryonic stem cells contains Gal4 and Zinc finger DNA binding arrays and a downstream nuclear eGFP gene in place of a single Oct4 allele as previously described (Hathaway et al., 2012). The CiA:Oct4 N118/N163 cell line containing viral integrations of N118 and N163 plasmids (N118-nLV EF-1α-Gal-FKBPx1-HA-PGK-Blast, N163-nLV EF-1α-HP1α (CS)-Frbx2(Frb+FrbWobb)-V5-PGK-Puro) was used for all experiments unless otherwise stated. The CiA:Oct4 N205 line containing the lentiviral construct N205 (N205-nLV EF-1α-ZFHD1-link-FKBP-HA <T2A> HP1αCS-Frbx2-V5-PGK-Blast) was used for shRNA experiments. CiA:Oct4 N118 was infected with the lentiviral construct N192 (N192-nLV Dual Promoter EF-1α-MCS-PGK-Puro HP1γ-(CS)-Frbx2(wobbmo)-V5) to yield the csHP1γ recruitment system CiA:Oct4 N118/N192. For orthogonal recruitment system, stable mESC cell line with blue fluorescent protein (BFP) reporter gene with tetracycline response elements (TRE) was generated by recombinase-mediated cassette exchange, by introducing the reporter cassette DNA in plasmid YR06 into a genetrap located on chromosome 15 at genome coordinates chr15:99941948 (Lienert et al. (2011) Nature Genetics 43(11): 1091-1097; Elling et al. (2017) Nature 550(7674): 114-118). […]
Flow cytometry was performed using an Intellicyt iQue Screener and analyzed with FlowJo software. […]

## COc1cc2nc(N3CCCC3)nc(N[C@H]3CCCNC3)c2cc1OC [compound 1, (S)-6,7-Dimethoxy-N-(Piperidin-3-yl)-2-(Pyrrolidin-1-yl)Quinazolin-4-Amine Trifluoroacetic Acid Salt]
[1]
  Activity against GLP in vitro: no detectable activity
[2]
  GFP expression / % GFP (+) population despite csHP1α recruitment: increased expression of GFP
